# Test results as given in US20120282201A1, “NOVEL COMPOUNDS” (priority 2009, published 2012).
# Experiment: Comparative example: solubility of BMDBM in 1:1 (w/w) mixture of C12-15 alkyl benzoate and a polymeric or solid UV-filter
# Assay type: physicochemical
# Source text: Where necessary the mixture was centrifuged in order to obtain a clear supernatant.
smiles,measurement,setting,value
"CCCCC(CC)COc1ccc(-c2nc(-c3ccc(OC)cc3)nc(-c3ccc(OCC(CC)CCCC)cc3O)n2)c(O)c1 (stereo not drawn) [BEMT, bis-ethylhexyloxyphenol methoxyphenyl triazine]",Solubility of BMDBM in C12-15 alkyl benzoate/UV-filter 1:1,"200 mg BMDBM with 1000 mg of 1:1 (w/w) mixture, supernatant by HPLC after 1 month at RT",3 wt.-%
same,Δ solubility of BMDBM related to cosmetic solvent,C12-15 alkyl benzoate/UV-filter 1:1,−4 wt.-%
same,Δ solubility of BMDBM,C12-15 alkyl benzoate/UV-filter 1:1 versus C12-15 alkyl benzoate,−11 wt.-%
